Measured values reported in PubChem BioAssay AID1963439 (Molecular Pharmacology Branch, DTP, NCI, 2024).

Tested on: NCI-H196 complex spheroids with HUVEC/MSC, growth % T/C
Assay: Anticancer human tumor NCI-H196 cell line growth inhibition [Asc];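 note: spheroids exposed to compound for 7 days before measurement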;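 for viability, T/C: 100% = DMSO vehicle control wells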
Settings: for IC50: curve of first compound; for viability, T/C: stronger effect = lower value
Procedure, shortened: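 Spheroid model: tumor line + HUVEC + hMSC. Single agents and combinations; top conc. at/near clinical Cmax (10 microM if undetermined), half-log dilutions. DMSO stocks at 800-fold test concentration.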

[1] = second compound 0.01 µM, first compound 0.0316 µM
[2] = second compound 0.01 µM, first compound 0.1 µM
[3] = second compound 0.01 µM, first compound 0.316 µM
[4] = second compound 0.01 µM, first compound 1 µM
[5] = second compound 0.01 µM, first compound 3.16 µM
[6] = second compound 0.01 µM, first compound 10 µM
[7] = second compound 0.0316 µM, first compound 0.0316 µM
[8] = second compound 0.0316 µM, first compound 0.1 µM
[9] = second compound 0.0316 µM, first compound 0.316 µM
[10] = second compound 0.0316 µM, first compound 1 µM
[11] = second compound 0.0316 µM, first compound 3.16 µM
[12] = second compound 0.0316 µM, first compound 10 µM
[13] = second compound 0.1 µM, first compound 0.0316 µM
[14] = second compound 0.1 µM, first compound 0.1 µM
[15] = second compound 0.1 µM, first compound 0.316 µM
[16] = second compound 0.1 µM, first compound 1 µM
[17] = second compound 0.1 µM, first compound 3.16 µM
[18] = second compound 0.1 µM, first compound 10 µM
[19] = second compound 0.316 µM, first compound 0.0316 µM
[20] = second compound 0.316 µM, first compound 0.1 µM
[21] = second compound 0.316 µM, first compound 0.316 µM
[22] = second compound 0.316 µM, first compound 1 µM
[23] = second compound 0.316 µM, first compound 3.16 µM
[24] = second compound 0.316 µM, first compound 10 µM
[25] = second compound 1 µM, first compound 0.0316 µM
[26] = second compound 1 µM, first compound 0.1 µM
[27] = second compound 1 µM, first compound 0.316 µM
[28] = second compound 1 µM, first compound 1 µM
[29] = second compound 1 µM, first compound 3.16 µM
[30] = second compound 1 µM, first compound 10 µM

| SMILES | IC50 (second compound 0.01 µM) [nM] | IC50 (second compound 0.0316 µM) [nM] | IC50 (second compound 0.1 µM) [nM] | IC50 (second compound 0.316 µM) [nM] | IC50 (second compound 1 µM) [nM] | viability, T/C [1] [%] | viability, T/C [2] [%] | viability, T/C [3] [%] | viability, T/C [4] [%] | viability, T/C [5] [%] | viability, T/C [6] [%] | viability, T/C [7] [%] | viability, T/C [8] [%] | viability, T/C [9] [%] | viability, T/C [10] [%] | viability, T/C [11] [%] | viability, T/C [12] [%] | viability, T/C [13] [%] | viability, T/C [14] [%] | viability, T/C [15] [%] | further results |
| --- | --- | --- | --- | --- | --- | --- | --- | --- | --- | --- | --- | --- | --- | --- | --- | --- | --- | --- | --- | --- | --- |
| C#Cc1c(F)ccc2cc(O)cc(-c3ncc4c(N5CC6CCC(C5)N6)nc(OCC56CCCN5CC(F)C6)nc4c3F)c12 (stereo not given) + CNC(C)C(=O)NC1CN(S(=O)(=O)c2cccc(S(=O)(=O)N3CCC4CCC(C(=O)NC(c5ccccc5)c5ccccc5)N4C(=O)C(NC(=O)C(C)NC)C3)c2)CCC2CCC(C(=O)NC(c3ccccc3)c3ccccc3)N2C1=O | < 31.6 | < 31.6 | < 31.6 | < 31.6 | < 31.6 | 8.46 | 8.46 | 4.34 | 5.01 | 4.3 | 1.48 | 5.72 | 5.7 | 4.82 | 3.76 | 4.16 | 0.96 | 4.46 | 3.83 | 4.97 | viability, T/C [16]: 3.85%; viability, T/C [17]: 3.73%; viability, T/C [18]: 0.77%; viability, T/C [19]: 2.58%; viability, T/C [20]: 2.92%; viability, T/C [21]: 3.31%; viability, T/C [22]: 3.63%; viability, T/C [23]: 2.24%; viability, T/C [24]: 1.04%; viability, T/C [25]: 3.75%; viability, T/C [26]: 2.83%; viability, T/C [27]: 3.86%; viability, T/C [28]: 2.71%; viability, T/C [29]: 2.69%; viability, T/C [30]: 1.34% |
| C=C(F)C(=O)N1CCN(c2nc(OCC3CCCN3C)nc3c2CCN(c2cccc4cccc(Cl)c24)C3)CC1CC#N (stereo not given) + CNC(C)C(=O)NC1CN(S(=O)(=O)c2cccc(S(=O)(=O)N3CCC4CCC(C(=O)NC(c5ccccc5)c5ccccc5)N4C(=O)C(NC(=O)C(C)NC)C3)c2)CCC2CCC(C(=O)NC(c3ccccc3)c3ccccc3)N2C1=O | < 31.6 | < 31.6 | < 31.6 | < 31.6 | < 31.6 | 7.36 | 8.05 | 5.8 | 3.58 | 0.83 | 0.19 | 3.17 | 4.55 | 4.1 | 3.88 | 0.38 | 0.16 | 4.2 | 5.22 | 5.23 | viability, T/C [16]: 3.23%; viability, T/C [17]: 0.27%; viability, T/C [18]: 0.18%; viability, T/C [19]: 4.24%; viability, T/C [20]: 3.28%; viability, T/C [21]: 1.71%; viability, T/C [22]: 2.27%; viability, T/C [23]: 2.27%; viability, T/C [24]: 0.18%; viability, T/C [25]: 3.34%; viability, T/C [26]: 3.4%; viability, T/C [27]: 2.52%; viability, T/C [28]: 1.53%; viability, T/C [29]: 0.35%; viability, T/C [30]: 0.24% |
